Columns and labels:
[1] = tested on: P. fluorescens 5RL (pUTK21); conditions: cited from earlier work
[2] = tested on: P. fluorescens 5RL; assay: Prototype test strip, naphthalene/salicylate bioreporter; assay type: cell-based; conditions: 5 ppm naphthalene in mixture with 1 ppm Hg2+ and 10 ppm toluene
From the text: (§1) 1. The bottom layer is absorbent Whatman filter paper.
(§2) 2. The second layer is an impermeable water barrier. Currently we are using aluminum foil.
(§3) 4. The fourth layer is the styrene sheet. […] There is one circle for each bioreporter.
(§4) 5. The last layer is the encapsulated cells.
(§5) Water will be wicked up the filter paper.

[3] = tested on: P. putida TVA8; conditions: cited from earlier work
[4] = tested on: P. putida TVA8; assay: Prototype test strip, toluene bioreporter; assay type: cell-based; conditions: 10 ppm toluene in mixture
From the text: as §1, §2, §3, §4, §5
[…]. […] […].

[5] = tested on: E. coli EC100; conditions: cellulose strips
[6] = tested on: P. fluorescens 5RL; conditions: salicylate 10 and 100 ppm, cellulose filter strips, room temperature
Procedure: Strips were removed and excess fluid was drained. These filter strips with cells were placed on a second set of strips impregnated with salicylic acid (10 and 100 ppm).
Briefly, a 100 μl sample of an uninduced culture of Pseudomonas fluorescens 5RL was placed in a sterile petri dish containing LB broth (10 ml) supplemented with tetracycline (14 μg/mI).

[7] = tested on: E. coli ARL1; assay: Detection of mercury using bioluminescence, strain ARL1; assay type: cell-based; conditions: 500 μg HgCl2/L
Procedure: (§6) Strains ARL1, ARL2, and ARL3 were screened for bioluminescence production in the presence of HgCl2. Each strain was grown in LB medium to an OD546nm of 0.35 at which time 500 μg HgCl2/L was added. Induction of bioluminescence in the presence of mercury was rapid (FIG. 5) with significant light produced in 30 minutes. Strain ARL2 had higher background bioluminescence (˜31,486 cps) in the absence of mercury relative to strain ARL1 and ARL3 (˜13,798 and ˜12,762 respectively). After 20 minutes, strain ARL2 produced approximately twice the amount of bioluminescence ((˜1,791,560 cps) relative to strains ARL1 and ARL3 (˜917.496 and 825,240 cps respectively).

[8] = tested on: E. coli ARL3; assay: Detection of mercury using bioluminescence, strain ARL3; assay type: cell-based; conditions: 500 μg HgCl2/L
Procedure: as §6

[9] = tested on: E. coli ARL2; assay: Detection of mercury using bioluminescence, strain ARL2; assay type: cell-based; conditions: 500 μg HgCl2/L
Procedure: as §6

SMILES: c1ccc2ccccc2c1 [Naphthalene]
- Lower Detection Limits [1]: ˜50 ppb
- Response Time [1]: ˜1 hour
- visibility of bioluminescence on test strip [2]: visible to the naked eye

SMILES: Cc1ccccc1 [Toluene]
- Response Time [3]: 25 ppm
- visibility of bioluminescence on test strip [4]: only detectable with a photomultiplier

SMILES: O=C([O-])c1ccccc1O.[Na+] [salicylate, sodium salicylate]
- time to visible light after contact of test strips with inducer solution [5]: less than one hour
- time to light visible to the naked eye [6]: less than 60 min

SMILES: [Cl][Hg][Cl] [HgCl2]
- time to significant light production [7]: 30 min
- time to significant light production [8]: 30 min
- bioluminescence after 20 minutes ([8]; LB medium, OD546nm 0.35): ~825,240 cps
- time to significant light production [9]: 30 min
- bioluminescence after 20 minutes ([9]; LB medium, OD546nm 0.35): ~1,791,560 cps
